For 23 compounds, T/C results are on record in PubChem BioAssay AID256 (DTP/NCI, 2004).

This assay deals with CD2F1 mice, L1210 leukemia ip, survival T/C. Kind of assay: NCI In Vivo Anticancer Drug Screen. Data for tumor model L1210 Leukemia (intraperitoneal) in CD2F1 (CDF1) mice. The settings on record: higher = longer survival. Summed up: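 Implant tumor; dose compound or vehicle; measure endpoint in both groups; report treated divided by control.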
Where [1] appears, read: endpoint: mean survival time, dose: 100.0 mg/kg/injection, schedule: Q04DX003 (ip), vehicle: saline with Tween-80.
[2] abbreviates: endpoint: mean survival time, dose: 200.0 mg/kg/injection, schedule: Q04DX003 (ip), vehicle: saline with Tween-80.
[3] abbreviates: endpoint: mean survival time, dose: 100.0 mg/kg/injection, schedule: Q01DX009 (ip), vehicle: saline with Tween-80.
The mark [4] stands for this setting: endpoint: mean survival time, dose: 200.0 mg/kg/injection, schedule: Q01DX009 (ip), vehicle: saline with Tween-80.
Where [5] appears, read: endpoint: mean survival time, dose: 400.0 mg/kg/injection, schedule: Q01DX009 (ip), vehicle: saline with Tween-80.
The mark [6] stands for this setting: endpoint: mean survival time, dose: 400.0 mg/kg/injection, schedule: Q04DX003 (ip), vehicle: saline with Tween-80.
The mark [7] stands for this setting: endpoint: mean survival time, dose: 50.0 mg/kg/injection, schedule: Q01DX009 (ip), vehicle: saline.
Where [8] appears, read: endpoint: mean survival time, dose: 100.0 mg/kg/injection, schedule: Q01DX009 (ip), vehicle: saline.
The mark [9] stands for this setting: endpoint: mean survival time, dose: 200.0 mg/kg/injection, schedule: Q01DX009 (ip), vehicle: saline.

“And” between values parts separate entries of the source, which are not always exact repeats. Equal entries are not always repeated. Inconclusive results and toxic doses are left out.

For the compound `Cc1ccc(NN=O)nc1`, the T/C by setting is: (endpoint: median survival time, dose: 1.5 mg/kg/injection, schedule: Q01DX009 (ip), vehicle: water) 110 % of control; (endpoint: median survival time, dose: 1.56 mg/kg/injection, schedule: Q01DX009 (ip), vehicle: water) 114 % of control; (endpoint: median survival time, dose: 3.0 mg/kg/injection, schedule: Q01DX009 (ip), vehicle: water) 114 % of control; (endpoint: median survival time, dose: 3.12 mg/kg/injection, schedule: Q01DX009 (ip), vehicle: water) 123 % of control; (endpoint: median survival time, dose: 12.0 mg/kg/injection, schedule: Q01DX009 (ip), vehicle: water) 156 % of control; (endpoint: median survival time, dose: 24.0 mg/kg/injection, schedule: Q01DX009 (ip), vehicle: water) 115 % of control and 106 % of control.
Consider `CCOC(=O)c1c(NC(C)=O)sc2c1CCCC2`, for which the T/C runs as follows: under setting [1], 97 % of control; under setting [2], 106 % of control.
On to `Cc1cc(NC(=O)Nc2ccc(Cl)cc2)no1`, for which the T/C was 96 % of control (endpoint: mean survival time, dose: 50.0 mg/kg/injection, schedule: Q01DX009 (ip), vehicle: saline sonified); 96 % of control (endpoint: mean survival time, dose: 100.0 mg/kg/injection, schedule: Q01DX009 (ip), vehicle: saline sonified); 96 % of control (endpoint: mean survival time, dose: 200.0 mg/kg/injection, schedule: Q01DX009 (ip), vehicle: saline sonified).
As to `CCOC(=O)/C(C#N)=C1/C=Cc2ccccc2N1`, the T/C under setting [3] is 102 % of control; the T/C under setting [1] was 109 % of control; the T/C under setting [4] was 96 % of control; the T/C under setting [2] is 97 % of control; the T/C under setting [5] was 96 % of control; the T/C under setting [6] is 97 % of control.
In the case of `Cc1ccc2c(c1)n([O-])c1cc(Cl)ccc1[n+]2=O`, the T/C runs as follows: (endpoint: median survival time, dose: 12.5 mg/kg/injection, schedule: Q01DX009 (ip), vehicle: saline with Tween-80) 101 % of control and 111 % of control; (endpoint: median survival time, dose: 25.0 mg/kg/injection, schedule: Q01DX009 (ip), vehicle: saline with Tween-80) 120 % of control; (endpoint: median survival time, dose: 30.0 mg/kg/injection, schedule: Q01DX009 (ip), vehicle: saline with Tween-80) 108 % of control; (endpoint: median survival time, dose: 50.0 mg/kg/injection, schedule: Q01DX009 (ip), vehicle: saline with Tween-80) 114 % of control and 112 % of control; (endpoint: median survival time, dose: 60.0 mg/kg/injection, schedule: Q01DX009 (ip), vehicle: saline with Tween-80) 117 % of control; (endpoint: median survival time, dose: 100.0 mg/kg/injection, schedule: Q01DX009 (ip), vehicle: saline with Tween-80) 114 % of control and 122 % of control. The T/C (endpoint: median survival time, dose: 167.0 mg/kg/injection, schedule: Q01DX009 (ip), vehicle: saline with Tween-80) was 123 % of control; the T/C (endpoint: median survival time, dose: 200.0 mg/kg/injection, schedule: Q01DX009 (ip), vehicle: saline with Tween-80) is 124 % of control and 97 % of control; the T/C (endpoint: median survival time, dose: 278.0 mg/kg/injection, schedule: Q01DX009 (ip), vehicle: saline with Tween-80) is 121 % of control.
As for `CC(=O)NC1Cn2c3c(c(COC(N)=O)c2C1O)C(=O)C(Nc1ccccc1)=C(C)C3=O` (configuration not stated), the T/C was 86 % of control (endpoint: mean survival time, dose: 2.08 mg/kg/injection, schedule: Q01DX001 (ip), vehicle: carboxymethylcellulose (CMC)); 98 % of control (endpoint: mean survival time, dose: 3.1 mg/kg/injection, schedule: Q01DX001 (ip), vehicle: carboxymethylcellulose (CMC)); 93 % of control (endpoint: mean survival time, dose: 4.7 mg/kg/injection, schedule: Q01DX001 (ip), vehicle: carboxymethylcellulose (CMC)).
Regarding `CCCCC(CC)COP(OCC(CC)CCCC)OCC(CC)CCCC` (configuration not stated), the T/C reads like this: under setting [3], 92 % of control; under setting [4], 87 % of control.
With `O=C1CCCCCC2CC12` (configuration not stated), the T/C runs as follows: under setting [3], 94 % of control; under setting [4], 102 % of control; under setting [5], 94 % of control.
Turning to `CCOC(=O)C(OC(C)=O)c1ccccc1` (configuration not stated), the T/C was 98 % of control under setting [3], 93 % of control under setting [4] and 96 % of control under setting [5].
With `CC(=O)Nc1ccccc1-c1ccccc1`, the T/C under setting [3] is 96 % of control; the T/C under setting [1] was 92 % of control; the T/C under setting [4] is 104 % of control; the T/C under setting [2] was 95 % of control; the T/C under setting [5] is 103 % of control; the T/C under setting [6] was 94 % of control.
Regarding `C/C(=N/Nc1ccc([N+](=O)[O-])cc1[N+](=O)[O-])c1ccccc1`, the T/C under setting [3] was 91 % of control, the T/C under setting [4] was 97 % of control and the T/C under setting [5] was 100 % of control.
With `CC(O)CCC(=O)c1ccoc1` (configuration not stated), the T/C was 109 % of control (endpoint: median survival time, dose: 0.62 mg/kg/injection, schedule: Q03HX015 (ip), vehicle: saline); 117 % of control (endpoint: median survival time, dose: 1.25 mg/kg/injection, schedule: Q03HX015 (ip), vehicle: saline); 106 % of control (endpoint: median survival time, dose: 2.5 mg/kg/injection, schedule: Q03HX015 (ip), vehicle: saline); 112 % of control (endpoint: median survival time, dose: 3.75 mg/kg/injection, schedule: Q03HX015 (ip), vehicle: saline + alcohol); 102 % of control (endpoint: median survival time, dose: 5.0 mg/kg/injection, schedule: Q03HX015 (ip), vehicle: saline); 105 % of control (endpoint: median survival time, dose: 7.5 mg/kg/injection, schedule: Q03HX015 (ip), vehicle: saline + alcohol). The T/C (endpoint: median survival time, dose: 10.0 mg/kg/injection, schedule: Q03HX015 (ip), vehicle: saline) is 109 % of control.
Turning to `O=C(c1ccc(O)cc1O)c1ccc(O)cc1O`, the T/C is 104 % of control under setting [7], 96 % of control under setting [8] and 93 % of control under setting [9].
For `O=S(=O)(Nc1cc(N2CCCCC2)c(NS(=O)(=O)c2ccccc2)cc1N1CCCCC1)c1ccccc1`, the T/C reads like this: (endpoint: mean survival time, dose: 100.0 mg/kg/injection, schedule: Q01DX001 (ip), vehicle: Klucel (hydroxypropylcellulose) (HPC)) 88 % of control; (endpoint: mean survival time, dose: 200.0 mg/kg/injection, schedule: Q01DX001 (ip), vehicle: Klucel (hydroxypropylcellulose) (HPC)) 98 % of control; (endpoint: mean survival time, dose: 400.0 mg/kg/injection, schedule: Q01DX001 (ip), vehicle: Klucel (hydroxypropylcellulose) (HPC)) 90 % of control.
Regarding `CCCCCCCCCCCCCCCCCC[N+]1(CC)CCCCC1`, the T/C is 98 % of control (endpoint: mean survival time, dose: 0.09 mg/kg/injection, schedule: Q01DX009 (ip), vehicle: saline); 98 % of control (endpoint: mean survival time, dose: 0.19 mg/kg/injection, schedule: Q01DX009 (ip), vehicle: saline); 101 % of control (endpoint: mean survival time, dose: 0.39 mg/kg/injection, schedule: Q01DX009 (ip), vehicle: saline); 98 % of control (endpoint: mean survival time, dose: 0.78 mg/kg/injection, schedule: Q01DX009 (ip), vehicle: saline).
With `O=C(CO)c1ccccc1`, the T/C is 97 % of control under setting [1], 92 % of control under setting [2] and 92 % of control under setting [6].
Turning to `C=CCOC(=O)CCCCCCCCC(=O)OCC=C`, the T/C runs as follows: under setting [3], 97 % of control; under setting [1], 96 % of control; under setting [4], 95 % of control; under setting [2], 94 % of control.
With `CCCCOC(=O)c1ccccc1C(=O)O.[Cu+2]`, the T/C (endpoint: mean survival time, dose: 6.25 mg/kg/injection, schedule: Q01DX001 (ip), vehicle: saline with Tween-80) was 100 % of control; the T/C (endpoint: mean survival time, dose: 12.5 mg/kg/injection, schedule: Q01DX001 (ip), vehicle: saline with Tween-80) is 96 % of control; the T/C (endpoint: mean survival time, dose: 25.0 mg/kg/injection, schedule: Q01DX001 (ip), vehicle: saline with Tween-80) is 103 % of control.
In the case of `C[Si](C)(C)Oc1cccc(O[Si](C)(C)C)c1`, the T/C under setting [3] is 92 % of control, the T/C under setting [4] is 94 % of control and the T/C under setting [5] was 87 % of control.
Regarding `NC(=O)SCC(N)C(=O)O` (configuration not stated), the T/C reads like this: under setting [7], 101 % of control; under setting [8], 101 % of control; under setting [9], 109 % of control; (endpoint: mean survival time, dose: 300.0 mg/kg/injection, schedule: Q01DX009 (ip), vehicle: saline) 107 % of control.
With `CC(=O)C1CC2c3ccccc3C1c1ccccc12` (configuration not stated), the T/C reads like this: under setting [3], 98 % of control; (endpoint: mean survival time, dose: 100.0 mg/kg/injection, schedule: Q04DX003 (ip), vehicle: saline sonified) 100 % of control; under setting [4], 98 % of control; (endpoint: mean survival time, dose: 200.0 mg/kg/injection, schedule: Q04DX003 (ip), vehicle: saline sonified) 98 % of control; under setting [5], 95 % of control; (endpoint: mean survival time, dose: 400.0 mg/kg/injection, schedule: Q04DX003 (ip), vehicle: saline sonified) 91 % of control.
Take `NNC(=O)COc1ccc(Cl)cc1Cl`: the T/C (endpoint: mean survival time, dose: 25.0 mg/kg/injection, schedule: Q01DX009 (ip), vehicle: saline with Tween-80) was 102 % of control; the T/C (endpoint: mean survival time, dose: 50.0 mg/kg/injection, schedule: Q01DX009 (ip), vehicle: saline with Tween-80) was 105 % of control; the T/C under setting [3] was 104 % of control.
As for `Cc1cc(S(=O)(=O)F)cc(Cl)c1SC(=O)N(C)C`, the T/C (endpoint: mean survival time, dose: 100.0 mg/kg/injection, schedule: Q04DX002 (ip), vehicle: saline with Tween-80) is 91 % of control; the T/C (endpoint: mean survival time, dose: 200.0 mg/kg/injection, schedule: Q04DX002 (ip), vehicle: saline with Tween-80) was 95 % of control; the T/C (endpoint: mean survival time, dose: 400.0 mg/kg/injection, schedule: Q04DX002 (ip), vehicle: saline with Tween-80) is 91 % of control.
